Experimental data taken from patent US8324346B2, “Bioactive keratin peptides” (Keraplast Technologies, Ltd., priority 2002, dated 2012).

Columns and labels:
keratinocytes = test: Mitogenic effects of crude peptide compositions on keratinocytes (OD 530 nm); format: cell-based, human; conditions: 5 days of exposure, positive control
human dermal fibroblasts = test: Biological effect of peptide compositions on human dermal fibroblasts (cell proliferation); format: cell-based; conditions: for increase in cell proliferation: human dermal fibroblasts, positive control
Protocol: A second set of studies was performed that tested the biological effect of the peptide compositions on human dermal fibroblasts after three and five days of exposure. After three days of exposure, the peptide composition produced a greater than 25% increase in cell proliferation at concentrations between 0.5 and 10 ug/ml. The positive control, […] fibroblast growth factor (bFGF25), produced a greater than 30% increase in cell proliferation. After five days of exposure, peptide compositions at a concentration of 0.5 to 10 ug/ml produced increases in cell proliferation of between 9% and 12%. The positive control produced a greater than 13% increase.
Related in vitro tests confirmed that the mitogenic effect of the peptide compositions on dermal fibroblasts increased with concentration up to nearly 150% of the negative control at 1000 ug/ml concentration. Compositions with greater purity increased the mitogenic effect to over 1000% of the negative control. The positive control in these studies, platelet derived growth factor (PDGF), increased the mitogenic effect to nearly 700% of the negative control.

Q: How did the “increase in keratinocyte proliferation” value (keratinocytes) turn out when “EGF25: epidermal growth factor (EGF25), positive control in the keratinocyte studies” was run?
A: greater than 25%

Q: With PDGF as the substance, how does the “mitogenic effect, % of the negative control” value (human dermal fibroblasts; dermal fibroblasts, concentration not given) read?
A: ~700%

Q: Which “increase in cell proliferation” value (human dermal fibroblasts; five days of exposure) does the source give for “bFGF25: bovine-derived fibroblast growth factor (bFGF25), positive control” here?
A: greater than 13%

Q: What about the “increase in cell proliferation” value (human dermal fibroblasts; three days of exposure) of the same substance?
A: greater than 30%
